The source of these data is paper PMC9443684 (RSC Advances, 2022).

The test system of one experiment is MCF-7 cancer cell line. Briefly: MTT assay, anticancer activity against MCF-7. The experiment is classed as cell-based. To be noted: Homo sapiens; for inhibition at 10 µM: MCF7, read-out: Cell growth inhibition (GI%); for IC50: MCF7, 48 h, read-out: Anticancer activity IC50.
The next experiment relates to HepG2 cancer cell line. Nature of the experiment: MTT assay, anticancer activity against HepG2. The experiment is classed as cell-based. To be noted: Homo sapiens; for inhibition at 10 µM: HepG2, read-out: Cell growth inhibition (GI%); for IC50: HepG2, 48 h, read-out: Anticancer activity IC50. For orientation: Formazan colour is commonly taken as a measure of viable cells.

A further experiment relates to HCT-116 cancer cell line. Nature of the experiment: MTT assay, anticancer activity against HCT-116. To be noted: Homo sapiens; for inhibition at 10 µM: HCT-116, read-out: Cell growth inhibition (GI%); for IC50: HCT-116, 48 h, read-out: Anticancer activity IC50. The experiment is classed as cell-based.
The subject of experiment [1] is MCF-7, HepG2 and HCT-116 cancer cell lines. Briefly: MTT assay, statements over the three cancer cell lines together. The experiment is classed as cell-based. To be noted: for inhibition at 10 µM: read-out: Growth inhibition against the three cancer cell lines; for IC50: read-out: Anticancer activity IC50 against the three cancer cell lines.
The next experiment has as its target EGFR (Homo sapiens, UniProt P00533). Nature of the experiment: In vitro EGFR-TK inhibition assay. The experiment is classed as biochemical.
The next experiment addresses T1, COX-1 (Ovis aries, UniProt P05979).
T1 sequence (P05979 25-600): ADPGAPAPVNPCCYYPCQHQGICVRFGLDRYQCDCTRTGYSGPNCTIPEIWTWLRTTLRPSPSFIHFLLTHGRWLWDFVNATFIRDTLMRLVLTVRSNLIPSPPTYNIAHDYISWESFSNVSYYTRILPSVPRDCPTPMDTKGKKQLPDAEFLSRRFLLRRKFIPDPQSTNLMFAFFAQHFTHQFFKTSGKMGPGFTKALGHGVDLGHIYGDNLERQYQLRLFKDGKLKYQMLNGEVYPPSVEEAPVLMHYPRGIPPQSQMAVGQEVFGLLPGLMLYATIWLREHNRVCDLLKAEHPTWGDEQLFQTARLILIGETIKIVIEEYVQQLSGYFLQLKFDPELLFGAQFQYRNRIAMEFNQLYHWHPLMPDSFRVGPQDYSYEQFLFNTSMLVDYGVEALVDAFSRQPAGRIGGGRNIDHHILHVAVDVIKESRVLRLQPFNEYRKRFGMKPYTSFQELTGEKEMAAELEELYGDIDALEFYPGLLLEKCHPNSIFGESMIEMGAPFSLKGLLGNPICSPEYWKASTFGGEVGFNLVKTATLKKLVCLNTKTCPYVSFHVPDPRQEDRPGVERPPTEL
Nature of the experiment: In vitro cyclooxygenase. The experiment is classed as biochemical, ovine.

A further experiment has as its target T2, COX-2 (Ovis aries, UniProt P79208).
T2 sequence (P79208 17-603): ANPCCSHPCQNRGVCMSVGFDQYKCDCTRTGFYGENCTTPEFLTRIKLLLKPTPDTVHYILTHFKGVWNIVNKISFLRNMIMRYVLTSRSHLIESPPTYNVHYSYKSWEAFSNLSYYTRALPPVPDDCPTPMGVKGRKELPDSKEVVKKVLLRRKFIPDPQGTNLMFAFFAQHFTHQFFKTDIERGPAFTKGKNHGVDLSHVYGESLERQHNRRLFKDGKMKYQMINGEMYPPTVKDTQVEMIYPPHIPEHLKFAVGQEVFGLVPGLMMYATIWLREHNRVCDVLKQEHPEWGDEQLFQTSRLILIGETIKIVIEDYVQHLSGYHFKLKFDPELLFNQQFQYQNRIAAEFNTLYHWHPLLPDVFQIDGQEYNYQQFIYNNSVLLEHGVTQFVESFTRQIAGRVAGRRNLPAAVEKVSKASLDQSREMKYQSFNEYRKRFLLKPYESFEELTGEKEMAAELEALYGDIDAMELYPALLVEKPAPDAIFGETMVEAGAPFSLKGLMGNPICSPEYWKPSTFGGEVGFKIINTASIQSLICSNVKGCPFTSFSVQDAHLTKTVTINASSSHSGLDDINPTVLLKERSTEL
Briefly: In vitro cyclooxygenase. The experiment is classed as biochemical, ovine. To be noted: for SI (selectivity index): IC50 (COX-1)/IC50 (COX-2).

EGFR, sequence (P00533 25-1210): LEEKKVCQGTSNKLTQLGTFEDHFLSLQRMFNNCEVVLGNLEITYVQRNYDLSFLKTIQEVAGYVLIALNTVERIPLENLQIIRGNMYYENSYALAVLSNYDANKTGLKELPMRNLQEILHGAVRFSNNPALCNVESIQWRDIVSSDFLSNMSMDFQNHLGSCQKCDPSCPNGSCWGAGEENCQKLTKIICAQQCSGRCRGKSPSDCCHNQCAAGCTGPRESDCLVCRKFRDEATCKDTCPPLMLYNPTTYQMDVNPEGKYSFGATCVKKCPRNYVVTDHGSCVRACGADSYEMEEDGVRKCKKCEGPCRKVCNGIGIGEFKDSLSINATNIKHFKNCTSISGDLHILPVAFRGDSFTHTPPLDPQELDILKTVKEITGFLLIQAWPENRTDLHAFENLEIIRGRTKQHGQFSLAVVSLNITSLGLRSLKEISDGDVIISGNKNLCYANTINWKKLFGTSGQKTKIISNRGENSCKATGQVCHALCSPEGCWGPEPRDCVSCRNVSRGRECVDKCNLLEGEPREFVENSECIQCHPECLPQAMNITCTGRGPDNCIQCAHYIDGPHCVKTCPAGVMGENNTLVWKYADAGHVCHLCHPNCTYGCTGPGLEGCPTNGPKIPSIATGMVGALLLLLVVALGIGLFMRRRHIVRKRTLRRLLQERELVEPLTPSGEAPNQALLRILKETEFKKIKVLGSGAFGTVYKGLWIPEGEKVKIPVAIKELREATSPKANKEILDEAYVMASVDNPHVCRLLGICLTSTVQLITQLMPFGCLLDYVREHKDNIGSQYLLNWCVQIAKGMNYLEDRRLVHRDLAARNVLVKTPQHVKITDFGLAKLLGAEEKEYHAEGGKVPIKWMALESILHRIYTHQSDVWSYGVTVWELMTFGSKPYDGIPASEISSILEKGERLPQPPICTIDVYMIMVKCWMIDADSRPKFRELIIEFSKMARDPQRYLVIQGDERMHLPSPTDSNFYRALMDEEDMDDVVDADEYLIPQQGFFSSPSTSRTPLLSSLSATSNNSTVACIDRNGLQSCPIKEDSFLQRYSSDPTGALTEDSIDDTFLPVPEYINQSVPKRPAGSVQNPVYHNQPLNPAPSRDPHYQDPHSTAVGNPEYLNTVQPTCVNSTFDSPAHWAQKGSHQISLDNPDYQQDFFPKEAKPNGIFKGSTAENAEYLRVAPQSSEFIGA

As usually defined, the inhibition is the percentage by which the read-out fell short of the control. As for `Cn1c(=O)c(-c2n[nH]c(=S)o2)nc2ccccc21` [Compound 15, 1-Methyl-3-(5-thioxo-4,5-dihydro-1,3,4-oxadiazol-2-yl)quinoxalin-2(1H)-one], the inhibition at 10 µM with MCF-7 cancer cell line worked out at 43.5 ± 0.63%; in the experiment with HepG2 cancer cell line it was 59.5 ± 1.92%; in the experiment on HCT-116 cancer cell line it was 76.3 ± 1.22%.

For the molecule `Cn1c(=O)c(C(=O)NN=Cc2ccccc2)nc2ccccc21` [Compound 2a, N′-benzylidene-4-methyl-3-oxo-3,4-dihydroquinoxaline-2-carbohydrazide], the figures for the inhibition at 10 µM in the experiment with MCF-7 cancer cell line, in the experiment with HepG2 cancer cell line and in the experiment on HCT-116 cancer cell line were 82.85 ± 0.49%, 89.21 ± 0.63% and 69.25 ± 0.45%, respectively.

On to `Cn1c(=O)c(C(=O)N/N=C/c2ccc3c(c2)OCO3)nc2ccccc21` [Compound 2d, (E)-N′-(benzo[d][1,3]dioxol-5-ylmethylene)-4-methyl-3-oxo-3,4-dihydroquinoxaline-2-carbohydrazide], for which the values for the inhibition at 10 µM in the experiment on MCF-7 cancer cell line, with HepG2 cancer cell line and in the experiment with HCT-116 cancer cell line were 50.14 ± 0.46%, 56.95 ± 0.35% and 59.5 ± 0.78%, respectively.

Consider `Cn1c(=O)c(C(=O)NN=Cc2ccc(O)cc2)nc2ccccc21` [Compound 2c, N′-(4-hydroxybenzylidene)-4-methyl-3-oxo-3,4-dihydroquinoxaline-2-carbohydrazide], for which the inhibition at 10 µM in the experiment on MCF-7 cancer cell line was 69.72 ± 0.46%; with HepG2 cancer cell line, 77.95 ± 0.56%; in the experiment on HCT-116 cancer cell line, 61.92 ± 0.55%; in experiment [1], no less than 88.7%.

Broadly, the IC50 is the midpoint of a concentration-inhibition curve. Regarding `C/C(=N\NC(=O)c1nc2ccccc2n(C)c1=O)c1cc2ccccc2oc1=O` [Compound 5, (E)-4-Methyl-3-oxo-N′-(1-(2-oxo-2H-chromen-3-yl)ethylidene)-3,4-dihydroquinoxaline-2-carbohydrazide], the IC50 on EGFR was 0.9 ± 0.01 µM; in the experiment with MCF-7 cancer cell line, 3.21 ± 0.1 µM; in the experiment on HepG2 cancer cell line, 3.62 ± 0.21 µM; in the experiment with HCT-116 cancer cell line, 3.46 ± 0.15 µM; on COX-1 it was 40.3 ± 3.35 µM; against COX-2, 0.83 ± 0.4 µM. For the same molecule, the IC50 in experiment [1] fell in the range of 3.21 to 4.54 µM. Also, the inhibition at 10 µM was 91.47 ± 0.25% with MCF-7 cancer cell line, 90.79 ± 0.21% in the experiment on HepG2 cancer cell line, 93.75 ± 0.29% in the experiment on HCT-116 cancer cell line and no less than 88.7% in experiment [1]. The “SI (selectivity index)” value at COX-2 was found to be 48.58.

As for `CN1C(=O)/C(=N\NC(=O)c2nc3ccccc3n(C)c2=O)c2ccccc21` [Compound 4b, (Z)-4-Methyl-N′-(1-methyl-2-oxoindolin-3-ylidene)-3-oxo-3,4-dihydroquinoxaline-2-carbohydrazide], the results for the inhibition at 10 µM with MCF-7 cancer cell line, in the experiment on HepG2 cancer cell line and in the experiment on HCT-116 cancer cell line were 61.47 ± 0.37%, 52.4 ± 0.74% and 59.46 ± 0.27%, respectively.

For the molecule `CC(=O)C/C(=N/NC(=O)c1nc2ccccc2n(C)c1=O)c1ccccc1` [Compound 9, (Z)-4-methyl-3-oxo-N′-(3-oxo-1-phenylbutylidene)-3,4-dihydroquinoxaline-2-carbohydrazide], the IC50 in the experiment on MCF-7 cancer cell line came to 6.84 ± 0.07 µM; in the experiment on HepG2 cancer cell line it was 5.54 ± 0.27 µM; with HCT-116 cancer cell line, 8.75 ± 0.25 µM; on COX-1, 38.7 ± 1.27 µM; against COX-2, 2.21 ± 0.14 µM. Also, the inhibition at 10 µM is 92.97 ± 0.54% in the experiment with MCF-7 cancer cell line, 96.83 ± 0.29% in the experiment on HepG2 cancer cell line, 97.89 ± 0.69% in the experiment on HCT-116 cancer cell line and no less than 88.7% in experiment [1]. In addition, on COX-2, the “SI (selectivity index)” value worked out at 17.52.

On to `CN1c2ccccc2N=C(C(=O)NN)C1N=N` (stereo not drawn) [Compound 10, 3-Diazenyl-4-methyl-3,4-dihydroquinoxaline-2-carbohydrazide], for which the inhibition at 10 µM in the experiment with MCF-7 cancer cell line was determined as 49.8 ± 0.86%; with HepG2 cancer cell line it was 52.4 ± 0.69%; with HCT-116 cancer cell line it was 86.6 ± 1.31%.

As for `Cn1c(=O)c(C(=O)NNC(=O)CC(=O)c2ccccc2)nc2ccccc21` [Compound 11, 4-Methyl-3-oxo-N′-(3-oxo-3-phenylpropanoyl)-3,4-dihydroquinoxaline-2-carbohydrazide], the IC50 against EGFR turned out to be 0.6 ± 0.04 µM; in the experiment on MCF-7 cancer cell line it was 2.91 ± 0.23 µM; in the experiment with HepG2 cancer cell line it was 2.41 ± 0.07 µM; with HCT-116 cancer cell line, 2.38 ± 0.26 µM; against COX-1, 38 ± 0.66 µM; against COX-2 it was 0.62 ± 0.07 µM. The IC50 in experiment [1] was in the range of 0.81 to 2.91 µM. Moreover, the inhibition at 10 µM with MCF-7 cancer cell line was 92.57 ± 0.43%; with HepG2 cancer cell line it was 92.78 ± 0.38%; in the experiment on HCT-116 cancer cell line it was 97.63 ± 0.16%; in experiment [1], no less than 88.7%. At COX-2, the “SI (selectivity index)” value is 61.23.

With `Cn1c(=O)c(C(=O)NNC(=S)Nc2ccccc2)nc2ccccc21` [Compound 13, 2-(4-Methyl-3-oxo-3,4-dihydroquinoxaline-2-carbonyl)-N-phenylhydrazine-carbothioamide], the IC50 against EGFR turned out to be 0.4 ± 0.02 µM; in the experiment on MCF-7 cancer cell line, 0.81 ± 0.13 µM; in the experiment on HepG2 cancer cell line, 0.96 ± 0.09 µM; in the experiment with HCT-116 cancer cell line it was 1.12 ± 0.19 µM; at COX-1, 30.4 ± 1.63 µM; on COX-2, 0.46 ± 0.06 µM. The IC50 in experiment [1] lay in the range of 0.81 to 2.91 µM. The inhibition at 10 µM was 95.39 ± 0.27% with MCF-7 cancer cell line, 96.75 ± 0.29% in the experiment on HepG2 cancer cell line, 97.87 ± 0.19% with HCT-116 cancer cell line and no less than 88.7% in experiment [1]. Also, at COX-2, the “SI (selectivity index)” value is on record as 66.11.

In the case of `COc1cccc2c1C(=O)c1c(O)c3c(c(O)c1C2=O)C[C@@](O)(C(=O)CO)C[C@@H]3O[C@H]1C[C@H](N)[C@H](O)[C@H](C)O1` [Doxorubicin, doxorubicin, reference compound], the IC50 in the experiment with MCF-7 cancer cell line is 0.9 ± 0.02 µM; with HepG2 cancer cell line, 1.21 ± 0.08 µM; with HCT-116 cancer cell line, 0.51 ± 0.03 µM.

For `Cn1c(=O)c(C(=O)N/N=C/C(O)C(O)C(O)CO)nc2ccccc21` (stereo not drawn) [Compound 6, (E)-4-Methyl-3-oxo-N′-(2,3,4,5-tetrahydroxypentylidene)-3,4-dihydroquinoxaline-2-carbohydrazide], the inhibition at 10 µM in the experiment with MCF-7 cancer cell line is 10.8 ± 0.76%; in the experiment with HepG2 cancer cell line, 21.4 ± 0.52%; in the experiment on HCT-116 cancer cell line, 41.8 ± 1.27%.

`Cn1c(=O)c(C(=O)N/N=C/c2ccc(Cl)cc2)nc2ccccc21` [Compound 2b, (E)-N′-(4-chlorobenzylidene)-4-methyl-3-oxo-3,4-dihydroquinoxaline-2-carbohydrazide]: the IC50 is 15.98 ± 0.06 µM with MCF-7 cancer cell line; 12.41 ± 0.05 µM with HepG2 cancer cell line; 16.3 ± 0.24 µM with HCT-116 cancer cell line; 4.42 ± 1.67 µM at COX-1; 5.26 ± 0.49 µM at COX-2; greater than 10 µM in experiment [1]. Besides, the inhibition at 10 µM with MCF-7 cancer cell line amounted to 95.5 ± 1.25%; in the experiment on HepG2 cancer cell line, 90.76 ± 0.29%; in the experiment with HCT-116 cancer cell line, 88.68 ± 0.52%. For the same molecule, at COX-2, the “SI (selectivity index)” value turned out to be 0.84.

Regarding `Cn1c(=O)c(-c2nnco2)nc2ccccc21` [Compound 14, 1-Methyl-3-(1,3,4-oxadiazol-2-yl)quinoxalin-2(1H)-one], the inhibition at 10 µM in the experiment with MCF-7 cancer cell line was 29.3 ± 0.63%; in the experiment with HepG2 cancer cell line, 25.7 ± 1.67%; with HCT-116 cancer cell line, 33.3 ± 1.32%.

As to `Cc1cc(C)n(C(=O)c2nc3ccccc3n(C)c2=O)n1` [Compound 12, 3-(3,5-Dimethyl-1H-pyrazole-1-carbonyl)-1-methylquinoxalin-2(1H)-one], the inhibition at 10 µM in the experiment on MCF-7 cancer cell line came out at 33.5 ± 0.82%; with HepG2 cancer cell line, 53.8 ± 1.38%; in the experiment with HCT-116 cancer cell line, 49.2 ± 1.23%.

Take `Cn1c(=O)c(C(=O)N/N=C/C(O)C(O)C(O)C(O)CO)nc2ccccc21` (stereo not drawn) [Compound 7, (E)-4-Methyl-3-oxo-N′-(2,3,4,5,6-pentahydroxyhexylidene)-3,4-dihydroquinoxaline-2-carbohydrazide]: the inhibition at 10 µM in the experiment with MCF-7 cancer cell line came out at 10.3 ± 0.48%; with HepG2 cancer cell line, 26.4 ± 0.83%; in the experiment with HCT-116 cancer cell line, 33.9 ± 1.27%.
